In publication PMC12785651, “The Role of Active Site Hydrophobic Interactions in Facilitating Catalysis in Human Terminal Deoxynucleotidyl Transferase” (International Journal of Molecular Sciences, 2025):

What was measured:
[1] = target: T1, TdT (human terminal deoxynucleotidyl transferase, hTdT) (Homo sapiens, UniProt P04053, L397A); assay: microscale thermophoresis (Monolith NT.[…]); assay type: binding; conditions: 50 mM Tris-HCl pH 8.0, 5 mM MnCl2, 37 °C; no primer listed; Hill coefficient fixed at 2; labelled compound (fluorescein); read-out: Kd, μM / Flu-dUTP
T1 construct: gene DNTT; expression per earlier publication

[2] = target: T2, TdT (human terminal deoxynucleotidyl transferase, hTdT) (Homo sapiens, UniProt P04053, F404W); assay: microscale thermophoresis (Monolith NT.[…]); assay type: binding; conditions: 50 mM Tris-HCl pH 8.0, 5 mM MnCl2, 37 °C; no primer listed; Hill coefficient fixed at 2; labelled compound (fluorescein); read-out: Kd, μM / Flu-dUTP
T2 construct: gene DNTT; expression per earlier publication

[3] = target: T3, TdT (human terminal deoxynucleotidyl transferase, hTdT) (Homo sapiens, UniProt P04053); assay: microscale thermophoresis (Monolith NT.[…]); assay type: binding; conditions: 50 mM Tris-HCl pH 8.0, 5 mM MnCl2, 37 °C; no primer listed; Hill coefficient fixed at 2; labelled compound (fluorescein); read-out: Kd, μM / Flu-dUTP
T3 construct: gene DNTT; expression per earlier publication

[4] = target: T4, TdT (human terminal deoxynucleotidyl transferase, hTdT) (Homo sapiens, UniProt P04053, F404A); assay: microscale thermophoresis (Monolith NT.[…]); assay type: binding; conditions: 50 mM Tris-HCl pH 8.0, 5 mM MnCl2, 37 °C; no primer listed; Hill coefficient fixed at 2; labelled compound (fluorescein); read-out: Kd, μM / Flu-dUTP
T4 construct: gene DNTT; expression per earlier publication

[5] = target: T5, TdT (human terminal deoxynucleotidyl transferase, hTdT) (Homo sapiens, UniProt P04053, F400A); assay: microscale thermophoresis (Monolith NT.[…]); assay type: binding; conditions: 50 mM Tris-HCl pH 8.0, 5 mM MnCl2, 37 °C; no primer listed; Hill coefficient fixed at 2; labelled compound (fluorescein); read-out: Kd, μM / Flu-dUTP
T5 construct: gene DNTT; expression per earlier publication

[6] = target: TdT F404A (human, UniProt P04053 1-509, F404A); assay: EMSA; 5 mM MgCl2; Hill h fixed at 2; EMSA: 50 mM Tris-HCl pH 8.0, 5 mM MgCl2, 7% glycerol; 0.5 uM FAM-M44, 0.06-10 uM protein; 10 min at 37 C then 5 min at 0 C; gel at 4 C; conditions: protein: recombinant; chain copies: 2; label: 5'-FAM; single strand
[7] = target: TdT WT (human, UniProt P04053 1-509); assay: as above; conditions: protein: recombinant; chain copies: 2; label: 5'-FAM; single strand
[8] = target: TdT L397A (human, UniProt P04053 1-509, L397A); assay: as above; conditions: protein: recombinant; chain copies: 2; label: 5'-FAM; single strand
[9] = target: TdT F404W (human, UniProt P04053 1-509, F404W); assay: as above; conditions: protein: recombinant; chain copies: 2; label: 5'-FAM; single strand
[10] = target: TdT F400A (human, UniProt P04053 1-509, F400A); assay: as above; conditions: protein: recombinant; chain copies: 2; label: 5'-FAM; single strand
Chain of TdT F400A (P04053 whole entry F400A): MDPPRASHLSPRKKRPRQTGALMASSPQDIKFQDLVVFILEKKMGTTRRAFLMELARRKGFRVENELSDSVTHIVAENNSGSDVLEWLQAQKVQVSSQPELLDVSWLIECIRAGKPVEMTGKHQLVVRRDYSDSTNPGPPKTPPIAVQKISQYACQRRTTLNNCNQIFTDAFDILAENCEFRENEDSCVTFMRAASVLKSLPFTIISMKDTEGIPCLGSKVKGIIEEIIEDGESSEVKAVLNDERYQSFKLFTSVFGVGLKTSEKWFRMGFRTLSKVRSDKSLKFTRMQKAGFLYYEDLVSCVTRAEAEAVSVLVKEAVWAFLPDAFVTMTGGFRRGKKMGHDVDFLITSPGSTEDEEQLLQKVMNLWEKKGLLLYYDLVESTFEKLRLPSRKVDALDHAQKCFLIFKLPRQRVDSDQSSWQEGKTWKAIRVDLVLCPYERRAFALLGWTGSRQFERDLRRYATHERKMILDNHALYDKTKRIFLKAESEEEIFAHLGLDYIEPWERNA

Chain of TdT F404W (P04053 whole entry F404W): as the sequence (P04053 whole entry F400A) above, with A400F, F404W counted along it
T2 sequence (P04053 whole entry F404W): as the sequence (P04053 whole entry F400A) above, with A400F, F404W counted along it
T5 sequence (P04053 whole entry F400A): as the sequence (P04053 whole entry F400A) above
T1 sequence (P04053 whole entry L397A): as the sequence (P04053 whole entry F400A) above, with L397A, A400F counted along it
Chain of TdT L397A (P04053 whole entry L397A): as the sequence (P04053 whole entry F400A) above, with L397A, A400F counted along it
Chain of TdT F404A (P04053 whole entry F404A): as the sequence (P04053 whole entry F400A) above, with A400F, F404A counted along it
T4 sequence (P04053 whole entry F404A): as the sequence (P04053 whole entry F400A) above, with A400F, F404A counted along it
Chain of TdT WT (P04053 whole entry): as the sequence (P04053 whole entry F400A) above, with A400F counted along it
T3 sequence (P04053 whole entry): as the sequence (P04053 whole entry F400A) above, with A400F counted along it

## Flu-dUTP
[1]
  Kd: 1.5 ± 0.2 µM
[2]
  Kd: 1 ± 0.1 µM
[3]
  Kd: 0.9 ± 0.1 µM
[4]
  Kd: 1.5 ± 0.2 µM
[5]
  Kd: 1.1 ± 0.1 µM

B1: FAM-M44 (ssDNA)
DNA: ATGCTATGGATTGATGTGACTAAGGTTGGAATGATGTGAAGAGA
[6]
  Kd: 1100 ± 90 nM
[7]
  Kd: 880 ± 80 nM
[8]
  Kd: 970 ± 80 nM
[9]
  Kd: 1000 ± 100 nM
[10]
  Kd: 980 ± 70 nM
